{"source": "patent US9433663B2", "about": "“Mobilization of hematopoietic stem cells” (Children's Hospital Medical Center, priority 2008, dated 2016)", "key": {"32D myeloid progenitors": {"system": "32D myeloid progenitors", "test": "FACS analysis of F-actin reorganization in 32D progenitors", "format": "cell-based, murine", "conditions": "dose-dependent pattern", "from_the_text": "To shed light on potential roles of CASIN in HSPC mobilization, the effects of CASIN on Cdc42-related cellular functions was studied, including adhesion, migration, and F-actin polymerization of progenitor cells in 32D myeloid progenitors. […] SDF-1α stimulation causes a reorganization of F-actin into a cortical ring around the cells. […] Thirdly, to gain further insight into cellular specificity and efficacy of CASIN, and also to rule out possible toxic effects by CASIN, Cdc42-involved BM progenitor cell functions were examined, including proliferation, adhesion, migration, and F-actin polymerization, in Cdc42^+/+ cells in parallel with Cdc42^−/− cells. In line with additional studies in a Cdc42 conditional knockout mouse model as described herein, Cdc42^−/− LDBM cells have increased CFU-forming progenitors compared to those of Cdc42^+/+."}, "LT-HSC": {"system": "LT-HSC", "test": "serial transplantation of CASIN-mobilized PB into NOD/SCID mice", "format": "in vivo", "experimental": "Whether CASIN administration can induce mobilization of HSC/Ps to peripheral blood of C57Bl/6 mice, mimicking the phenotype observed in Cdc42 conditional knockout mice, was evaluated. First of all, mobilization of hematopoietic progenitor cells was examined by CFU-C assays functionally (FIG. 3a). […] Secondarily, to further explore the ability of CASIN to mobilize LT-HSC which is crucial for long-term repopulation of the mobilized cells, serial transplantations were carried out, where 20 million PB from CASIN-mobilized C57Bl/6 mice was transplanted into primary recipient of NOD/SCID mice, and subsequent secondary and tertiary transplants were finished as well using prior BMs (FIG. 3c). Donor chimerisms were assessed by using H2K^b congenic marker which is positive for donors of C57Bl/6 strain and negative for recipients of NOD/SCID strain. […] Therefore, the studies show CASIN can efficiently mobilize colony-forming hematopoietic progenitors and LT-HSCs with self-renewal and multi-lineage differentiation capacity. Thirdly, to further investigate the potential of CASIN to vacate the BM niche after mobilization, six-color staining of the BM cells was performed from C57Bl/6 mice with or without CASIN treatment followed by FACS analysis. […] Therefore, a transient decrease in BM and a concomitant increase in peripheral organs of HSCs would be beneficial to facilitating the subsequent HSC transplantation.\nTo functionally define the LT-HSC, serial transplantations of mobilized PB from C57Bl/6 mice into sublethally irradiated NOD/SCID mice were carried out. Briefly, 2×10^7 PB cells were harvested 40 hrs after CASIN mobilization, and subsequently transplanted to a sublethally irradiated primary recipient. Chimerisms of donor-derived cells in the BM and PB were monitored over time by FACS analysis of the congenic marker H2K^b. Subsequent secondary and tertiary transplantations were performed using prior BM cells, and monitored by FACS analysis as well."}, "[1]": {"system": "HSCs (IL7Ra^−Lin^−Sca-1^+c-Kit^+) in the BM", "test": "six-color FACS of BM HSPC compartments after treatment", "format": "in vivo", "conditions": "after CASIN injection, C57Bl/6 mice", "experimental": "Whether CASIN administration can induce mobilization of HSC/Ps to peripheral blood of C57Bl/6 mice, mimicking the phenotype observed in Cdc42 conditional knockout mice, was evaluated. First of all, mobilization of hematopoietic progenitor cells was examined by CFU-C assays functionally (FIG. 3a). […] Secondarily, to further explore the ability of CASIN to mobilize LT-HSC which is crucial for long-term repopulation of the mobilized cells, serial transplantations were carried out, where 20 million PB from CASIN-mobilized C57Bl/6 mice was transplanted into primary recipient of NOD/SCID mice, and subsequent secondary and tertiary transplants were finished as well using prior BMs (FIG. 3c). Donor chimerisms were assessed by using H2K^b congenic marker which is positive for donors of C57Bl/6 strain and negative for recipients of NOD/SCID strain. […] Therefore, the studies show CASIN can efficiently mobilize colony-forming hematopoietic progenitors and LT-HSCs with self-renewal and multi-lineage differentiation capacity. […]\nTo immunophenotypically profile the multi-compartments of HSPCs in BM, FACS analysis of six-color staining was carried out as previously. […] The sub-compartments of HSC, LT-HSC, ST-HSC, and CLP were quantified accordingly."}, "[2]": {"system": "human CD34^+ umbilical cord blood cells", "test": "migration of human CD34+ HCB cells", "format": "cell-based", "conditions": "5 μM", "experimental": "FIG. 4C. relative migration of human CD34^+ cord blood cells in the presence of CASIN at dose of 5 μM in comparison to that of control.\n(§1) To begin to study potential utility of CASIN in human hematopoietic stem cell mobilization, a series of cellular assays were carried out to determine the effects on human CD34^+ umbilical cord blood cells (HCBs). […] The effects of CASIN on human hematopoietic cell mobilization was therefore tested using a well established preclinical in vivo model (NOD/SCID-Hcb) of human hematopoietic function, where fresh CD34^+ hCB cells were transplanted into sub-lethally irradiated NOD/SCIDs by intrafemoral injection, and repopulated and maintained human hematopoietic reconstitution in the bone marrow of NOD/SCID recipient mice (FIG. 9b, FIG. 11) (Larochelle, A. et al. Nat Med 2, 1329-1337 (1996); Bhatia, M., et al. Proc Natl Acad Sci USA 94, 5320-5325 (1997)). Intravenous injections of CASIN were applied when human cells were well engrafted in the NOD/SCID recipients."}, "[3]": {"system": "human CD45^+ hematopoietic cells", "test": "mobilization of human CD45+ cells in NOD/SCID-hCB model", "format": "in vivo, NOD/SCID mice xenografted with human CD34^+ hCB cells", "conditions": "intravenous injection, by 20 min post administration", "experimental": "as §1\nC57BL/6, NOD/SCID, NOD/SCID-SGM3 and NOD/SCIDγC−/− (NOG) were in house bred in the animal barrier facility of Cincinnati Children's Hospital Medical Center (CCHMC) and used at the age of 6-8 weeks old. Cultured N-RasMA93 cells were injected into NOD/SCIDγC−/− mice by tail vein. Freshly thawed CD34^+ hCB cells were transplanted into NOD/SCID mice by intrafemoral injection."}, "N-RasMA93 cells": {"system": "N-RasMA93 cells", "test": "F-actin reorganization of N-RasMA93 leukemia cells", "format": "cell-based, human", "conditions": "in vitro", "experimental": "FIG. 5A. SDF-1α induced F-actin polymerization without or with gradient CASIN pre-treatments was determined by MFI using FACS analysis.\nLike normal HSCs, their malignant counterpart, leukemia initiating cells (LICs) reside in their BM niches that provide the structural and physiological conditions supporting their survival and growth. LICs are resistant to traditional chemotherapy by interacting with their BM microenvironment, which are the culprits of leukemia relapses after a period of remission induced by chemotherapy. Detachment of LICs from their niche by CASIN would be a valuable supplementary therapy to the traditional cancer therapies (e.g., chemotherapies). First of all, in vitro effects of CASIN were examined in adhesion, migration, and F-actin polymerization of LICs, each of which is independently important for the retention of LICs in BM niches. Retroviral transduction of an MLL-AF9 fusion cDNA together with N-Ras oncogene into normal human CD34^+cord blood cells led to the establishment of cultures of N-Ras-MA93 cells that can initiate acute myeloid leukemia in NOG mice. […] To address it, a human AML model was set up by transplanting N-RasMA93 cells into NOG mice intravenously."}}, "data": [{"smiles": "OCCNC1CCCc2c1[nH]c1ccc(-c3ccccc3)cc21", "note": "(centres unmarked) [CASIN]", "values": [{"measurement": "F-actin reorganization stimulated by SDF1α", "setting": "32D myeloid progenitors", "value": "significantly dampened"}, {"measurement": "PB reconstitution of donor-derived cells in the primary recipient", "setting": "LT-HSC; 1-3 mo post transplantation of PB from CASIN-mobilized mice", "value": "reconstituted considerable percentages of total PB"}, {"measurement": "multi-lineage differentiation of engrafted donor cells", "setting": "LT-HSC; BM and PB of the primary recipients", "value": "had undergone multi-lineage differentiations"}, {"measurement": "engraftment of donor-derived cells in BM", "setting": "LT-HSC; primary through tertiary transplantation", "value": "engraftment of donor-derived cells was detected"}, {"measurement": "number of genotypic HSCs (IL7Ra^−Lin^−Sca-1^+c-Kit^+) in the BM", "setting": "[1]", "value": "decreased significantly"}, {"measurement": "migration activity of human progenitors", "setting": "[2]", "value": "significantly dampened"}, {"measurement": "human CD45^+ hematopoietic cells mobilized to the peripheral blood", "setting": "[3]", "value": "significant amount of human CD45^+ hematopoietic cells mobilized to the peripheral blood"}, {"measurement": "F-actin reorganization capacity of N-RasMA93 cells", "setting": "N-RasMA93 cells", "value": "significantly impaired"}]}]}
